Results: PubChem BioAssay (NCI)
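Interpolation was linear, between the two tested concentrations surrounding the appropriate level; five concentrations were tested over 48 hours in 96-well plates. Here, GI50 denotes the concentration required for 50% inhibition of growth. TGI: total growth inhibition.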

Experiments:
Test in all cases: NCI-60 cell line screen, 48 h
786-0 renal = system: 786-0 renal
A498 renal = system: A498 renal
A549 NSCLC = system: A549 NSCLC
ACHN renal = system: ACHN renal
BT-549 breast = system: BT-549 breast
CAKI-1 renal = system: CAKI-1 renal
CCRF-CEM leukemia = system: CCRF-CEM leukemia
COLO 205 colon = system: COLO 205 colon
DU-145 prostate = system: DU-145 prostate
EKVX NSCLC = system: EKVX NSCLC
HCC-2998 colon = system: HCC-2998 colon
HCT-15 colon = system: HCT-15 colon
HL-60(TB) leukemia = system: HL-60(TB) leukemia
HOP-62 NSCLC = system: HOP-62 NSCLC
HOP-92 NSCLC = system: HOP-92 NSCLC
HS 578T breast = system: HS 578T breast
HT29 colon = system: HT29 colon
K-562 leukemia = system: K-562 leukemia
KM12 colon = system: KM12 colon
LOX IMVI melanoma = system: LOX IMVI melanoma
M14 melanoma = system: M14 melanoma
MALME-3M melanoma = system: MALME-3M melanoma
MCF7 breast = system: MCF7 breast
MDA-MB-231 breast = system: MDA-MB-231 breast
MDA-MB-435 = system: MDA-MB-435
MOLT-4 leukemia = system: MOLT-4 leukemia
NCI-H226 lung = system: NCI-H226 lung
NCI-H23 lung = system: NCI-H23 lung
NCI-H460 lung = system: NCI-H460 lung
NCI-H522 lung = system: NCI-H522 lung
NCI/ADR-RES ovarian = system: NCI/ADR-RES ovarian
OVCAR-3 ovarian = system: OVCAR-3 ovarian
OVCAR-4 ovarian = system: OVCAR-4 ovarian
OVCAR-5 ovarian = system: OVCAR-5 ovarian
OVCAR-8 ovarian = system: OVCAR-8 ovarian
PC-3 prostate = system: PC-3 prostate
RPMI-8226 leukemia = system: RPMI-8226 leukemia
RXF 393 renal = system: RXF 393 renal
SF-268 CNS = system: SF-268 CNS
SF-295 CNS = system: SF-295 CNS
SF-539 CNS = system: SF-539 CNS
SK-MEL-2 melanoma = system: SK-MEL-2 melanoma
SK-MEL-28 melanoma = system: SK-MEL-28 melanoma
SK-MEL-5 melanoma = system: SK-MEL-5 melanoma
SK-OV-3 ovarian = system: SK-OV-3 ovarian
SN12C renal = system: SN12C renal
SNB-19 CNS = system: SNB-19 CNS
SNB-75 CNS = system: SNB-75 CNS
SR leukemia = system: SR leukemia
SW-620 colon = system: SW-620 colon
T-47D breast = system: T-47D breast
TK-10 renal = system: TK-10 renal
U251 CNS = system: U251 CNS
UACC-257 melanoma = system: UACC-257 melanoma
UACC-62 melanoma = system: UACC-62 melanoma
UO-31 renal = system: UO-31 renal

**Q.** With `CNC(=O)c1ccccc1Nc1nc(Nc2cc(OC)c(OC)c(OC)c2)ncc1Br` as the compound, how does the GI50 (786-0 renal) read?
**A.** 23.4 nM

**Q.** What about the TGI (786-0 renal) of the same compound?
**A.** 1850 nM

**Q.** And the GI50 (A498 renal)?
**A.** < 10.9 nM

**Q.** What about the TGI (A498 renal) of the same compound?
**A.** 36.8 nM

**Q.** What about the GI50 (A549 NSCLC) of the same compound?
**A.** 35.4 nM

**Q.** What about the TGI (A549 NSCLC) of the same compound?
**A.** 17500 nM

**Q.** What about the GI50 (ACHN renal) of the same compound?
**A.** 20.9 nM

**Q.** And the TGI (ACHN renal)?
**A.** 15600 nM

**Q.** And the GI50 (BT-549 breast)?
**A.** 70.4 nM

**Q.** What about the TGI (BT-549 breast) of the same compound?
**A.** 1170 nM

**Q.** What about the GI50 (CAKI-1 renal) of the same compound?
**A.** 15.5 nM

**Q.** What about the TGI (CAKI-1 renal) of the same compound?
**A.** 275 nM

**Q.** What about the GI50 (CCRF-CEM leukemia) of the same compound?
**A.** 52.3 nM

**Q.** What about the TGI (CCRF-CEM leukemia) of the same compound?
**A.** > 19900 nM

**Q.** And the GI50 (COLO 205 colon)?
**A.** 15.1 nM

**Q.** What about the TGI (COLO 205 colon) of the same compound?
**A.** 59.1 nM

**Q.** And the GI50 (DU-145 prostate)?
**A.** 34.8 nM

**Q.** And the TGI (DU-145 prostate)?
**A.** 42100 nM

**Q.** And the GI50 (EKVX NSCLC)?
**A.** 30.8 nM

**Q.** What about the TGI (EKVX NSCLC) of the same compound?
**A.** 1010 nM

**Q.** And the GI50 (HCC-2998 colon)?
**A.** 27 nM

**Q.** And the TGI (HCC-2998 colon)?
**A.** 1540 nM

**Q.** What about the GI50 (HCT-15 colon) of the same compound?
**A.** 28.3 nM

**Q.** And the TGI (HCT-15 colon)?
**A.** 7750 nM

**Q.** What about the GI50 (HL-60(TB) leukemia) of the same compound?
**A.** 24.5 nM

**Q.** And the TGI (HL-60(TB) leukemia)?
**A.** 181 nM

**Q.** And the GI50 (HOP-62 NSCLC)?
**A.** 34.9 nM

**Q.** And the TGI (HOP-62 NSCLC)?
**A.** 2310 nM

**Q.** And the GI50 (HOP-92 NSCLC)?
**A.** < 15.2 nM

**Q.** What about the TGI (HOP-92 NSCLC) of the same compound?
**A.** 87.4 nM

**Q.** What about the GI50 (HS 578T breast) of the same compound?
**A.** 25.9 nM

**Q.** What about the TGI (HS 578T breast) of the same compound?
**A.** 569 nM

**Q.** And the GI50 (HT29 colon)?
**A.** 16.1 nM

**Q.** And the TGI (HT29 colon)?
**A.** 12700 nM

**Q.** What about the GI50 (K-562 leukemia) of the same compound?
**A.** 87.4 nM

**Q.** And the TGI (K-562 leukemia)?
**A.** > 38900 nM

**Q.** What about the GI50 (KM12 colon) of the same compound?
**A.** < 13.6 nM

**Q.** What about the TGI (KM12 colon) of the same compound?
**A.** 4980 nM

**Q.** And the GI50 (LOX IMVI melanoma)?
**A.** 18.3 nM

**Q.** And the TGI (LOX IMVI melanoma)?
**A.** 91.7 nM

**Q.** And the GI50 (M14 melanoma)?
**A.** 19.1 nM

**Q.** And the TGI (M14 melanoma)?
**A.** 1380 nM

**Q.** And the GI50 (MALME-3M melanoma)?
**A.** 26.6 nM

**Q.** What about the TGI (MALME-3M melanoma) of the same compound?
**A.** 1790 nM

**Q.** What about the GI50 (MCF7 breast) of the same compound?
**A.** 37.4 nM

**Q.** And the TGI (MCF7 breast)?
**A.** 2780 nM

**Q.** What about the GI50 (MDA-MB-231 breast) of the same compound?
**A.** 33 nM

**Q.** What about the TGI (MDA-MB-231 breast) of the same compound?
**A.** 263 nM

**Q.** And the GI50 (MDA-MB-435)?
**A.** 54.6 nM

**Q.** What about the TGI (MDA-MB-435) of the same compound?
**A.** 2110 nM

**Q.** And the GI50 (MOLT-4 leukemia)?
**A.** 50.1 nM

**Q.** What about the TGI (MOLT-4 leukemia) of the same compound?
**A.** 5750 nM

**Q.** And the GI50 (NCI-H226 lung)?
**A.** 26.5 nM

**Q.** And the TGI (NCI-H226 lung)?
**A.** 214 nM

**Q.** What about the GI50 (NCI-H23 lung) of the same compound?
**A.** 35 nM

**Q.** And the TGI (NCI-H23 lung)?
**A.** 1120 nM

**Q.** And the GI50 (NCI-H460 lung)?
**A.** 29.1 nM

**Q.** What about the TGI (NCI-H460 lung) of the same compound?
**A.** 1370 nM

**Q.** What about the GI50 (NCI-H522 lung) of the same compound?
**A.** 41.7 nM

**Q.** And the TGI (NCI-H522 lung)?
**A.** 1850 nM

**Q.** And the GI50 (NCI/ADR-RES ovarian)?
**A.** 49.6 nM

**Q.** And the TGI (NCI/ADR-RES ovarian)?
**A.** 1810 nM

**Q.** What about the GI50 (OVCAR-3 ovarian) of the same compound?
**A.** 69.5 nM

**Q.** What about the TGI (OVCAR-3 ovarian) of the same compound?
**A.** 25000 nM

**Q.** What about the GI50 (OVCAR-4 ovarian) of the same compound?
**A.** 28.7 nM

**Q.** What about the TGI (OVCAR-4 ovarian) of the same compound?
**A.** 2400 nM

**Q.** And the GI50 (OVCAR-5 ovarian)?
**A.** 32.1 nM

**Q.** And the TGI (OVCAR-5 ovarian)?
**A.** 31700 nM

**Q.** And the GI50 (OVCAR-8 ovarian)?
**A.** 48.3 nM

**Q.** What about the TGI (OVCAR-8 ovarian) of the same compound?
**A.** 12200 nM

**Q.** What about the GI50 (PC-3 prostate) of the same compound?
**A.** 131 nM

**Q.** What about the TGI (PC-3 prostate) of the same compound?
**A.** 10900 nM

**Q.** What about the GI50 (RPMI-8226 leukemia) of the same compound?
**A.** 70.1 nM

**Q.** What about the TGI (RPMI-8226 leukemia) of the same compound?
**A.** 2840 nM

**Q.** And the GI50 (RXF 393 renal)?
**A.** 15.4 nM

**Q.** And the TGI (RXF 393 renal)?
**A.** 71.2 nM

**Q.** What about the GI50 (SF-268 CNS) of the same compound?
**A.** 38.4 nM

**Q.** And the TGI (SF-268 CNS)?
**A.** 2180 nM

**Q.** And the GI50 (SF-295 CNS)?
**A.** 28.2 nM

**Q.** What about the TGI (SF-295 CNS) of the same compound?
**A.** 868 nM

**Q.** And the GI50 (SF-539 CNS)?
**A.** 31.3 nM

**Q.** What about the TGI (SF-539 CNS) of the same compound?
**A.** 263 nM

**Q.** What about the GI50 (SK-MEL-2 melanoma) of the same compound?
**A.** 17.1 nM

**Q.** And the TGI (SK-MEL-2 melanoma)?
**A.** 49.9 nM

**Q.** What about the GI50 (SK-MEL-28 melanoma) of the same compound?
**A.** 66.7 nM

**Q.** What about the TGI (SK-MEL-28 melanoma) of the same compound?
**A.** 2110 nM

**Q.** What about the GI50 (SK-MEL-5 melanoma) of the same compound?
**A.** 54 nM

**Q.** What about the TGI (SK-MEL-5 melanoma) of the same compound?
**A.** 1180 nM

**Q.** And the GI50 (SK-OV-3 ovarian)?
**A.** 30.9 nM

**Q.** What about the TGI (SK-OV-3 ovarian) of the same compound?
**A.** 5130 nM

**Q.** And the GI50 (SN12C renal)?
**A.** 36.6 nM

**Q.** What about the TGI (SN12C renal) of the same compound?
**A.** 3300 nM

**Q.** And the GI50 (SNB-19 CNS)?
**A.** 120 nM

**Q.** What about the TGI (SNB-19 CNS) of the same compound?
**A.** 2530 nM

**Q.** What about the GI50 (SNB-75 CNS) of the same compound?
**A.** < 12.4 nM

**Q.** What about the TGI (SNB-75 CNS) of the same compound?
**A.** 49.4 nM

**Q.** And the GI50 (SR leukemia)?
**A.** 25.4 nM

**Q.** And the GI50 (SW-620 colon)?
**A.** 24.1 nM

**Q.** And the TGI (SW-620 colon)?
**A.** 5760 nM

**Q.** And the GI50 (T-47D breast)?
**A.** 1070 nM

**Q.** What about the TGI (T-47D breast) of the same compound?
**A.** 6710 nM

**Q.** And the GI50 (TK-10 renal)?
**A.** 18.6 nM

**Q.** And the TGI (TK-10 renal)?
**A.** 648 nM

**Q.** What about the GI50 (U251 CNS) of the same compound?
**A.** 42.6 nM

**Q.** And the TGI (U251 CNS)?
**A.** 3380 nM

**Q.** And the GI50 (UACC-257 melanoma)?
**A.** 32.8 nM

**Q.** What about the TGI (UACC-257 melanoma) of the same compound?
**A.** 3470 nM

**Q.** What about the GI50 (UACC-62 melanoma) of the same compound?
**A.** 25.5 nM

**Q.** What about the TGI (UACC-62 melanoma) of the same compound?
**A.** 1640 nM

**Q.** And the GI50 (UO-31 renal)?
**A.** < 14 nM

**Q.** What about the TGI (UO-31 renal) of the same compound?
**A.** 84.9 nM
